These results are taken from patent US8299059B2, “Crystalline compound and a process for its preparation” (Eli Lilly and Company, priority 2009, dated 2012).

Holding throughout (assay type): physicochemical
The nature of series [1]: Determination of particle size distribution by laser diffraction. As to conditions: for x10 / x90: cumulative volume distribution (undersized); for x50: median particle size. The method, then:
Laser diffraction particle size analysis is employed to determine the x10, x50 and x90 values. The procedure uses Fraunhofer laser diffraction theory to calculate the particle size distribution. The analysis is performed with a Malvern Mastersizer 2000 equipped with a Hydro 2000S wet module. A filtered (0.22 μm) solution composed of 0.35% (v/v) sorbitan monooleate (SPAN® 80) in hexanes and saturated with semagacestat is used as the dispersant. The parameters used in the analysis are as follows: sample refractive index—1.555, sample absorption—0.1, dispersant refractive index—1.37, result calculation model—General purpose, normal sensitivity, sample measurement time—12 seconds, background measurement time—12 seconds, and stirrer/pump speed—2700 rpm. A dry sample is added to the Hydro 2000S wet module with sonication on at 100%, until the obscuration is between 10 and 20%. The sample is sonicated for 12 s and stirred for a total of 2 min (including sonication) prior to the analysis. Two separate assays are typically run; the average values are reported.

Series [2] in a line: Determination of particle flowability (Schulze shear cell tester). As to conditions: flow factor coefficient, pre-consolidation pressure 2000 Pa. The method, then: Particle flowability is characterized using a Schulze shear cell tester with a pre-consolidation pressure of 2000 Pa. The powder sample is contained in an annular shear cell. A vertically acting force is applied to the lid of the flow cell allowing an adjustable normal stress to be applied. The shear cell is slowly rotated and the torque necessary to prevent the cover from rotating is recorded. The measured shear stress that is recorded is the shear stress required for the powder to move or flow against itself. From a plot of the shear stress versus normal force, the flowability or FFC is determined

Series [3] can be described thus: Determination of specific surface area (BET isotherm, nitrogen). Here is the method:
Specific surface area is determined from BET isotherm measurements using nitrogen as the absorbed gas.

In series [1], `CC(C)[C@H](O)C(=O)N[C@@H](C)C(=O)N[C@@H]1C(=O)N(C)CCc2ccccc21` [Method 2, Crystalline (2S)-2-hydroxy-3-methyl-N-[(1S)-1-methyl-2-oxo-2-[[(1S)-2,3,4,5-tetrahydro-3-methyl-2-oxo-1H-3-benzazepin-1-yl]amino]ethyl]-butanamide anhydrate Form II] gave a x10 of 3.5 μm, a x90 of 54 μm and a x50 of 17 μm. In series [2], the FFC was 2.0. This compound also displayed an SSA in series [3] of 1.1 m^2/g.

As for `CC(C)[C@H](O)C(=O)N[C@@H](C)C(=O)N[C@@H]1C(=O)N(C)CCc2ccccc21` [Example 1, Crystalline (2S)-2-hydroxy-3-methyl-N-[(1S)-1-methyl-2-oxo-2-[[(1S)-2,3,4,5-tetrahydro-3-methyl-2-oxo-1H-3-benzazepin-1-yl]amino]ethyl]-butanamide anhydrate Form II], in series [1], the x10 is given as 14 μm, the x90 turned out to be 128 μm and the x50 is reported as 59 μm. The same compound returned an FFC in series [2] of 3.8. For the same compound, the SSA in series [3] is given as 0.4 m^2/g.
